According to US20250162988A1, “CRYSTALS OF VITAMIN D DERIVATIVE OR CRYSTALS OF SOLVATE THEREOF” (TEIJIN PHARMA LIMITED, priority 2022, published 2025):

Legend:
[1] = test system: rat oligodendrocyte progenitor cells; assay: Promotive activity of rat oligodendrocyte progenitor cell differentiation (MBP immunostaining); format: cell-based, SD rats; conditions: vitamin D derivative 2 μM, T3 30 nM, cultured for 4 days
Protocol: The promotive activity of oligodendrocyte progenitor cell (OPC) differentiation of the vitamin D derivatives was evaluated by immunostaining of myelin basic protein (MBP).
Subsequently, oligodendrocyte progenitor cell separation medium was added to the flask, and the mixture was similarly shaken for about 22 hours (37° C., 200 rpm), and the supernatant was collected to prepare oligodendrocyte progenitor cells.
After cell seeding, a solution of the test compound or a solution prepared from DMSO with a differentiation medium were added to the cells such that the DMSO concentration in the wells was 0.1%. The cells were cultured for 4 days.

[2] = Evaluation of brain penetration in mice (single oral dose, plasma and brain level by LC/MS/MS); format: in vivo, C57BL/6J mice; conditions: mean ± S.D.
Protocol: The administration solution was administered orally to C57BL/6J mice (8 weeks old, male, n=3) at a single dose (1 mg/kg). Mice were euthanized at 6 points of 0.25, 0.5, 1, 2, 4, and 8 hours after administration, and plasma and brain sampling were performed. After preparing a homogenate from the collected brain using Tissue Lyser II (QIAGEN #85300), acetonitrile was added to the homogenate and the homogenate was centrifuged (TOMY DIGITAL BIOLOGY MX-307, 12000 rpm, 5 minutes) to extract the administered test compound contained in the brain. Similarly, the plasma was subjected to addition of acetonitrile and centrifugal separation to extract the administered test compound contained in the plasma. Each extracted sample was subjected to measurement of the concentration of administered test compound using LC/MS/MS (SHIMADZU UFLC/MS/MS (8050)).
The administration solution was administered orally to C57BL/6J mice (8 weeks old, male, n=3) at a single dose (0.2 mg/kg). Mice were euthanized at 6 points of 0.25, 0.5, 1, 2, 4, and 8 hours after administration, and plasma and brain sampling were performed. After preparing a homogenate from the collected brain using Tissue Lyser II (QIAGEN #85300), acetonitrile was added to the homogenate and the homogenate was centrifuged (TOMY DIGITAL BIOLOGY MX-307, 12000 rpm, 5 minutes) to extract the administered compound contained in the brain. Similarly, the plasma was subjected to addition of acetonitrile and centrifugal separation to extract the administered test compound contained in the plasma. Each extracted sample was subjected to measurement of the concentration of administered test compound using LC/MS/MS (SHIMADZU UFLC/MS/MS (8050)).

[3] = in vivo; cited from earlier work
[4] = Test 1, 1 mg/kg single oral dose

Brain level at the time of brain Cmax [2, 4] | SMILES | Average value (mean) of the ratio (the number of MBP-positive cells/the number of Hoechst33342-positive cells) ([1]; Test 1) | also measured
595 ± 23 pmol/g | C[C@H](CCN1CCOCC1)[C@H]1CC[C@H]2/C(=C/C=C3C[C@@H](O)C[C@H](O)C3)CCC[C@]12C [Compound (E), (1R,3R)-5-(2-((1R,3aS,7aR,E)-7a-methyl-1-((R)-4-morpholinobutane-2-yl)octahydro-4H-inden-4-ylidene)ethylidene)cyclohexane-1,3-diol] |  | Average value (mean) of the ratio (the number of MBP-positive cells/the number of Hoechst33342-positive cells) ([1]; Test 2): 0.36
80 ± 9 pmol/g | C[C@H](CN1CC[C@@H](CC(F)F)C1)[C@H]1CC[C@H]2/C(=C/C=C3C[C@@H](O)C[C@H](O)C3)CCC[C@]12C [Compound (D), (1R,3R)-5-(2-((1R,3aS,7aR,E)-1-((S)-1-((S)-3-(2,2-difluoroethyl)pyrrolidin-1-yl)propan-2-yl)-7a-methyloctahydro-4H-inden-4-ylidene)ethylidene)cyclohexane-1,3-diol] |  | Average value (mean) of the ratio (the number of MBP-positive cells/the number of Hoechst33342-positive cells) ([1]; Test 2): 0.53

Further lines, the molecule ahead of its results:

SMILES | Brain level at the time of brain Cmax [2, 4] | Average value (mean) of the ratio (the number of MBP-positive cells/the number of Hoechst33342-positive cells) ([1]; Test 1) | also measured
C[C@H](CN1CC[C@@H](C(F)F)C1)[C@H]1CC[C@H]2/C(=C/C=C3C[C@@H](O)C[C@H](O)C3)CCC[C@]12C [Compound (B), (1R,3R)-5-(2-((1R,3aS,7aR,E)-1-((S)-1-((R)-3-(difluoromethyl)pyrrolidin-1-yl)propan-2-yl)-7a-methyloctahydro-4H-inden-4-ylidene)ethylidene)cyclohexane-1,3-diol] | 384 ± 40 pmol/g | 0.38 | 
C=C1/C(=C\C=C2/CCC[C@]3(C)[C@@H]([C@H](C)CCCC(C)(C)O)CC[C@@H]23)C[C@@H](O)C[C@@H]1O [1α,25-dihydroxyvitamin D3] |  |  | ratio of concentration in brain/concentration in blood [3]: 0.007±0.003
C[C@H](CN1CC[C@@H](C(C)(F)F)C1)[C@H]1CC[C@H]2/C(=C/C=C3C[C@@H](O)C[C@H](O)C3)CCC[C@]12C [Compound (C), (1R,3R)-5-(2-((1R,3aS,7aR,E)-1-((S)-1-((R)-3-(1,1-difluoroethyl)pyrrolidin-1-yl)propan-2-yl)-7a-methyloctahydro-4H-inden-4-ylidene)ethylidene)cyclohexane-1,3-diol] | 562 ± 50 pmol/g | 0.57 | 
C[C@H](CN1CCOCC1(C)C)[C@H]1CC[C@H]2/C(=C/C=C3C[C@@H](O)C[C@H](O)C3)CCC[C@]12C [Compound (F), (1R,3R)-5-(2-((1R,3aS,7aR,E)-1-((S)-1-(3,3-dimethylmorpholino)propan-2-yl)-7a-methyloctahydro-4H-inden-4-ylidene)ethylidene)cyclohexane-1,3-diol] |  |  | Average value (mean) of the ratio (the number of MBP-positive cells/the number of Hoechst33342-positive cells) ([1]; Test 3): 0.50; Brain level at the time of brain Cmax ([2]; Test 2, 0.2 mg/kg single oral dose): 137.8 ± 11.5 pmol/g
C[C@H](CN1CC[C@H](C(F)F)C1)[C@H]1CC[C@H]2/C(=C/C=C3C[C@@H](O)C[C@H](O)C3)CCC[C@]12C [Compound (A), (1R,3R)-5-(2-((1R,3aS,7aR,E)-1-((S)-1-((S)-3-(difluoromethyl)pyrrolidin-1-yl)propan-2-yl)-7a-methyloctahydro-4H-inden-4-ylidene)ethylidene)cyclohexane-1,3-diol] | 529 ± 53 pmol/g | 0.47 | 
